Measured values taken from patent US20060035920A1, “Chk-1 inhibitors” (Millennium Pharmaceuticals, Inc., priority 2004, published 2006).

target: T1, Recombinant human Chk1 (GST-Chk1) (Homo sapiens, UniProt O14757); assay: Chk1 DELFIA Kinase Assay; type: biochemical; details: GST-Chk1 in vitro kinase assay, bound given in μM
T1 construct: made in house; host or cells: insect cells (baculovirus, Bac-to-Bac system)
T1 sequence (O14757 1-476): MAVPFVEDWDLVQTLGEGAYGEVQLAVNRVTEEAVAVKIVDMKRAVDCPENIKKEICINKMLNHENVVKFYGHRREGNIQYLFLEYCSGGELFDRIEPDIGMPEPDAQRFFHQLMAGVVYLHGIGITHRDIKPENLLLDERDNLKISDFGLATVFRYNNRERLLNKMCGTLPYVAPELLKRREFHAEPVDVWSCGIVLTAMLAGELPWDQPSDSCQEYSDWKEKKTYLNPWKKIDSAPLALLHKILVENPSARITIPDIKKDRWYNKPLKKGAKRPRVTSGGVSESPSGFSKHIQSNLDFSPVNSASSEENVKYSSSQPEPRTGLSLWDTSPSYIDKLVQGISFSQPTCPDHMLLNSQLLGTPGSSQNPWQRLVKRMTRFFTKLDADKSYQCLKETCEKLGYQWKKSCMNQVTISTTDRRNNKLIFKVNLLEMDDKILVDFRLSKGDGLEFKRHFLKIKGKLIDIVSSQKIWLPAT
Procedure: Recombinant human Chk1 was expressed as a fusion protein with glutathione S-transferase at the amino-terminus (GST-Chk1) using standard baculovirus vectors and (Bac-to-Bac®) insect cell expression system purchased from GIBCO™ Invitrogen. Recombinant protein expressed in insect cells was purified using glutathione sepharose (Amersham Biotech) using standard procedures described by the manufacturer.
Chk1 DELFIA® Kinase Assay:
Assays (25 μL) utilized 2 nM GST-Chk1 containing 10 mM Tris, pH 7.5, 20% glycerol, 50 mM sodium chloride (NaCl), 0.01% Surfact-Amps® 20, 1 μM peptide stubstrate (Biotin-GLYRSPSMPEN-amide) (SEQ ID NO: 2), 01.% BSA, 2 mM DTT, 4% DMSO, 600 μM ATP, 10 mM MgCl2 and reacted for 50 minutes at room temperature. Reactions were terminated with 100 μL of Stop buffer containing 1% BSA, 10 mM Tris, pH 8.0, 150 mM NaCl, 100 mM EDTA. Stopped reactions (100 μL) were transferred to 96 well NeutrAvidin plates (Pierce) to capture the biotin-peptide substrate during a 30 minute room temperature incubation. Wells were washed and reacted with 100 μL PerkinElmer Wallac Assay Buffer containing 21.5 ng/ml anti-phospho-Ser216-Cdc25c rabbit polyclonal antibody from Cell Signaling Technology (Beverly, Mass.) and 292 ng/ml europium labeled anti-rabbit-IgG for 1 hour at room temperature. Wells were washed and europium released from the bound antibody by addition of Enhancement Solution (100 μL) (PerkinElmer Wallac) and detected using a Perkin Elmer Wallac Envison™ 2100 multilabel reader using standard manufacturer settings.

| IC50 [µM] | Structure (SMILES) |
| --- | --- |
| < 1 | CCn1c(=O)c2c(C)[nH]nc2c2cc(-c3ccc(CN4CCc5ccccc5C4)s3)ccc21 [Compound I-48, 8-[5-(3,4-dihydroisoquinolin-2(1H)-ylmethyl)-2-thienyl]-5-ethyl-3-methyl-2,5-dihydro-4H-pyrazolo[4,3-c]quinolin-4-one] |
| < 1 | CCn1c(=O)c2c(C)[nH]nc2c2cc(-c3cn[nH]c3)ccc21 [Compound I-52, 5-ethyl-3-methyl-8-(1H-pyrazol-4-yl)-2,5-dihydro-4H-pyrazolo[4,3-c]quinolin-4-one] |
| < 1 | CCn1c(=O)c2c(C)[nH]nc2c2cc(-c3cnn(C)c3)ccc21 [Compound I-51, 5-ethyl-3-methyl-8-(1-methyl-1H-pyrazol-4-yl)-2,5-dihydro-4H-pyrazolo[4,3-c]quinolin-4-one] |

same assay, conditions: GST-Chk1 kinase assay, bound given in nM

| IC50 [µM] | Structure (SMILES) |
| --- | --- |
| < 0.5 | COCCn1c(=O)c2c(C)[nH]nc2c2cc(C#CCN3CCCC3)ccc21 [Compound I-5, 5-(2-methoxyethyl)-3-methyl-8-(3-pyrrolidin-1-ylprop-1-yn-1-yl)-2,5-dihydro-4H-pyrazolo[4,3-c]quinolin-4-one] |
| < 0.5 | CCn1c(=O)c2c(C)[nH]nc2c2cc(C#CCN3[C@H](C)CCC[C@@H]3C)ccc21 [Compound I-37, 8-{3-[(2R,6S)-2,6-dimethylpiperidin-1-yl]prop-1-yn-1-yl}-5-ethyl-3-methyl-2,5-dihydro-4H-pyrazolo[4,3-c]quinolin-4-one] |
| < 0.5 | CCCn1c(=O)c2c(C)[nH]nc2c2cc(C#CCN3CCCC3)ccc21 [Compound I-19, 3-methyl-5-propyl-8-(3-pyrrolidin-1-ylprop-1-yn-1-yl)-2,5-dihydro-4H-pyrazolo[4,3-c]quinolin-4-one] |
| > 0.5 | CCn1c(=O)c2c(C)[nH]nc2c2cc(-c3ccc(CN4CCc5ccccc5C4)s3)ccc21 [Compound I-48, 8-[5-(3,4-dihydroisoquinolin-2(1H)-ylmethyl)-2-thienyl]-5-ethyl-3-methyl-2,5-dihydro-4H-pyrazolo[4,3-c]quinolin-4-one] |
| < 0.5 | CCn1c(=O)c2c(C)[nH]nc2c2cc(C#CCN(C(C)C)C(C)(C)C)ccc21 [Compound I-38, 8-{3-[tert-butyl(isopropyl)amino]prop-1-yn-1-yl}-5-ethyl-3-methyl-2,5-dihydro-4H-pyrazolo[4,3-c]quinolin-4-one] |
| < 0.5 | CCn1c(=O)c2c(C)[nH]nc2c2cc(C#CCN3CCC(F)(F)C3)ccc21 [Compound I-30, 8-[3-(3,3-difluoropyrrolidin-1-yl)prop-1-yn-1-yl]-5-ethyl-3-methyl-2,5-dihydro-4H-pyrazolo[4,3-c]quinolin-4-one] |
| < 0.5 | CCN(CC)CCc1ccc(-c2ccc3c(c2)c2n[nH]c(C)c2c(=O)n3CC)s1 [Compound I-82, 8-{5-[2-(diethylamino)ethyl]-2-thienyl}-5-ethyl-3-methyl-2,5-dihydro-4H-pyrazolo[4,3-c]quinolin-4-one] |
| < 0.5 | Cc1[nH]nc2c1c(=O)n(C)c1ccc(C#CCO)cc21 [Compound I-24, 8-(3-hydroxyprop-1-yn-1-yl)-3,5-dimethyl-2,5-dihydro-4H-pyrazolo[4,3-c]quinolin-4-one] |
| < 0.5 | Cc1[nH]nc2c1c(=O)n(CC(F)(F)F)c1ccc(C#CCN3CCCC3)cc21 [Compound I-20, 3-methyl-8-(3-pyrrolidin-1-ylprop-1-yn-1-yl)-5-(2,2,2-trifluoroethyl)-2,5-dihydro-4H-pyrazolo[4,3-c]quinolin-4-one] |
| < 0.5 | CCn1c(=O)c2c(C)[nH]nc2c2cc(C#CCN3CCCC3)ccc21 [Compound I-21, 5-ethyl-3-methyl-8-(3-pyrrolidin-1-ylprop-1-yn-1-yl)-2,5-dihydro-4H-pyrazolo[4,3-c]quinolin-4-one] |
| < 0.5 | CCn1c(=O)c2c(C)[nH]nc2c2cc(-c3ccc(CN4CCCC4)s3)ccc21 [Compound I-53, 5-ethyl-3-methyl-8-[5-(pyrrolidin-1-ylmethyl)-2-thienyl]-2,5-dihydro-4H-pyrazolo[4,3-c]quinolin-4-one] |
| < 0.5 | CCn1c(=O)c2c(C)[nH]nc2c2cc(/C=C/CN3[C@@H](C)CC[C@@H]3C)ccc21 (racemic) [Compound I-40, 8-{(1E)-3-[(2S,5S)-2,5-dimethylpyrrolidin-1-yl]prop-1-en-1-yl}-5-ethyl-3-methyl-2,5-dihydro-4H-pyrazolo[4,3-c]quinolin-4-one] |
| < 0.5 | Cc1[nH]nc2c1c(=O)n(CC1CC1)c1ccc(C#CCN3CCCC3)cc21 [Compound I-6, 5-(cyclopropylmethyl)-3-methyl-8-(3-pyrrolidin-1-ylprop-1-yn-1-yl)-2,5-dihydro-4H-pyrazolo[4,3-c]quinolin-4-one] |
| < 0.5 | CCn1c(=O)c2c(C)[nH]nc2c2cc(C#CCN3CCCCC3)ccc21 [Compound I-9, 5-ethyl-3-methyl-8-(3-piperidin-1-ylprop-1-yn-1-yl)-2,5-dihydro-4H-pyrazolo[4,3-c]quinolin-4-one] |
| > 0.5 | CCn1c(=O)c2c(C)[nH]nc2c2cc(-c3cn[nH]c3)ccc21 [Compound I-52, 5-ethyl-3-methyl-8-(1H-pyrazol-4-yl)-2,5-dihydro-4H-pyrazolo[4,3-c]quinolin-4-one] |
| < 0.5 | Cc1[nH]nc2c1c(=O)n(CC(C)C)c1ccc(C#CCN3CCCC3)cc21 [Compound I-16, 5-isobutyl-3-methyl-8-(3-pyrrolidin-1-ylprop-1-yn-1-yl)-2,5-dihydro-4H-pyrazolo[4,3-c]quinolin-4-one] |
| < 0.5 | CCn1c(=O)c2c(C)[nH]nc2c2cc(C#CCN3CCN(C)CC3)ccc21 [Compound I-8, 5-ethyl-3-methyl-8-[3-(4-methylpiperazin-1-yl)prop-1-yn-1-yl]-2,5-dihydro-4H-pyrazolo[4,3-c]quinolin-4-one] |
| > 0.5 | CCn1c(=O)c2c(C)[nH]nc2c2cc(-c3cnn(C)c3)ccc21 [Compound I-51, 5-ethyl-3-methyl-8-(1-methyl-1H-pyrazol-4-yl)-2,5-dihydro-4H-pyrazolo[4,3-c]quinolin-4-one] |
| < 0.5 | CCn1c(=O)c2c(C)[nH]nc2c2cc(C#CC(C)(C)N)ccc21 [Compound I-15, 8-(3-amino-3-methylbut-1-yn-1-yl)-5-ethyl-3-methyl-2,5-dihydro-4H-pyrazolo[4,3-c]quinolin-4-one] |
| < 0.5 | Cc1[nH]nc2c1c(=O)n(CCF)c1ccc(-c3ccc(CN4CCCC4)s3)cc21 [Compound I-47, 5-(2-fluoroethyl)-3-methyl-8-[5-(pyrrolidin-1-ylmethyl)-2-thienyl]-2,5-dihydro-4H-pyrazolo[4,3-c]quinolin-4-one] |
| < 0.5 | Cc1[nH]nc2c1c(=O)[nH]c1ccc(C#CCN3CCCC3)cc12 [Compound I-13, 3-methyl-8-(3-pyrrolidin-1-ylprop-1-yn-1-yl)-2,5-dihydro-4H-pyrazolo[4,3-c]quinolin-4-one] |
| < 0.5 | CCn1c(=O)c2c(C)[nH]nc2c2cc(-c3ccc(CN4CC[C@H](O)C4)s3)ccc21 [Compound I-83, 5-ethyl-8-(5-{[(3S)-3-hydroxypyrrolidin-1-yl]methyl}-2-thienyl)-3-methyl-2,5-dihydro-4H-pyrazolo[4,3-c]quinolin-4-one] |
| < 0.5 | CCn1c(=O)c2c(CCOC)[nH]nc2c2cc(C#CCN3CCCC3)ccc21 [Compound I-14, 5-ethyl-3-(2-methoxyethyl)-8-(3-pyrrolidin-1-ylprop-1-yn-1-yl)-2,5-dihydro-4H-pyrazolo[4,3-c]quinolin-4-one] |
